Test results from PMC7018972, “Novel and selective inactivators of Triosephosphate isomerase with anti-trematode activity” (Scientific Reports, 2020).
Read-outs that look alike come from different tables or passages of the source. Blank lines part the entries; values can stand above or below the molecule they belong to.

Legend:
[1] = target: Fasciola hepatica TIM (FhTIM) (Fasciola hepatica, UniProt S4UI50); assay: Inhibition of recombinant FhTIM, coupled enzyme assay; assay type: biochemical
Procedure, shortened: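 E. coli-expressed FhTIM preincubated with compound 1 h at 37 °C in 100 mM triethanolamine, 10 mM EDTA, pH 7.4, 10% DMSO. Aliquot diluted into coupled assay (1 mM glyceraldehyde-3-phosphate, 0.2 mM NADH, α-glycerol phosphate dehydrogenase, pH 7.4) with NADH decrease at 340 nm, 38 °C. Triplicate, two independent experiments.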

[2] = target: FhTIM (Fasciola hepatica, UniProt S4UI50); assay: Microscale thermophoresis (MST) binding to FhTIM; conditions: 24 °C
FhTIM, sequence (S4UI50 entry or part of it): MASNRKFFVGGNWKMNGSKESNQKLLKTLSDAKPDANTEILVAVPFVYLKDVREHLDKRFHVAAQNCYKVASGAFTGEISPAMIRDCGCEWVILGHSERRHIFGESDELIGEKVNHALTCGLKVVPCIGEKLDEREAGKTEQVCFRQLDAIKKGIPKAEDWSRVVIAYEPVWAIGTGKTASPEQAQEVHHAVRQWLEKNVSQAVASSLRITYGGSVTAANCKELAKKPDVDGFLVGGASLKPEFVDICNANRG
Method: MST experiments were performed according to the NanoTemper technologies protocol in a Monolith NT.115 (red/blue) instrument (NanoTemper Technologies, München, Germany[36]). With this technique, the diffusion behavior of a labeled protein is measured when an infrared light excites the movement of the protein in capillaries. This behavior is the combination of two effects: the fast, local environment-dependent responses of the fluorophore to the temperature jump and the slower diffusive thermophoresis fluorescence changes. It will be modified when the protein is complexed with increasing amounts of unlabeled partners, leading to titration curves that can be fit for Kd estimation. In practice, FhTIM was labeled with the Monolith His-Tag Labeling Kit RED-tris-NTA (NanoTemper Technologies, München, Germany), as described by the manufacturer. The experiments were performed using 20% and 40% MST power and between 20–80% LED power at 24 °C. The MST traces were recorded using the standard parameters: 5 s MST power off, 30 s MST power on, and 5 s MST power off. The compounds were used at high concentrations (around 5 mM) in the bindings check assay with DMSO at 5% v/v. If the binding check was positive, then the affinity determination was performed with the same experimental settings, with serial 2x dilutions of the compound of interest.

[3] = system: S. mansoni somules; assay: S. mansoni somules phenotypic screen in vitro; assay type: cell-based, Schistosoma mansoni; conditions: for SOMULES SEVERITY SCORE: Table 2S, 10 uM
Source text: (§1) The NMRI isolate of S. mansoni was maintained by passage through Biomphalaria glabrata snails and 3–5 week-old, female Golden Syrian hamsters (Charles River, San Diego, CA) as intermediate and definite hosts, respectively. A dose of 600 infective larvae (cercariae) was used to infect hamsters. The acquisition, preparation and in vitro maintenance of S. mansoni post-infective larvae (schistosomula or somules) and adults have been already described[5],[50],[51]. Vertebrate animal maintenance and handling at the University of California San Diego Animal Care Facility were in accordance with protocols approved by the university’s Institutional Animal Care and Use Committee (IACUC).
Phenotypic screens with somules were performed as described[5],[50],[51]. Initially, 100 μL Basch medium, 100 U/ml penicillin, […] streptomycin, 4% heat-inactivated FBS (Corning Mediatech) and 1 μl compound in DMSO were added to clear, 96-well round-bottomed plates (Costar cat.# 3367). Then, 100 μL of the same medium containing 40–50 somules was added to mix the compound with somules (final concentration of DMSO was 0.5%). Assay plates were placed into plastic boxes humidified with wet tissue and then incubated at 37 °C in a 5% CO2 environment. Somules phenotypes were recorded every 24 h up to 72 h using an inverted microscope (Zeiss Axiovert 40 C).
(§2) Schistosome phenotypic responses were recorded employing a series of ‘descriptors,’ such as rounding, degeneration, overactivity, loss of translucency and changes in motility, as described previously[5],[50],[51],[53]. To allow for comparisons of compound activity, each descriptor was awarded a value of 1 and these were added up to a maximum ‘severity score’ of 4. Evidence of degeneracy or death was awarded the maximum score of 4. Scores were averaged across duplicate wells for each compound (see details in the supporting information).

[4] = system: newly excysted juvenile (NEJ) F. hepatica; assay: In vitro NEJ treatment; assay type: cell-based, Fasciola hepatica; conditions: Fasciola hepatica, NEJ
Method: F. hepatica metacercariae were acquired from DILAVE, MGAP, Uruguay. NEJ were obtained by in vitro excystement as previously described with minor modifications. Briefly, metacercariae were incubated with 1% sodium hypochlorite for 5 min at room temperature to remove the outer cyst wall and then washed exhaustively with PBS 200 U/mL Penicillin G sulfate, […] streptomycin sulfate, 500 ng/mL amphotericin B, 10 mM HEPES, counted and divided into groups of around 20 parasites that were transferred to 12 wells tissue culture plates. Parasites were maintained at 37 °C, 5% CO2 in modified Basch’s medium. At day 1, compounds were added at the indicated concentrations and 0.5% DMSO was added to control groups; each condition was tested in duplicate. NEJ behavior was monitored under a light microscope (Olympus BX41), every day each well was recorded for a minute in order to assess parasite motility and registered using the following score: 3- normally active; 2- reduced activity (sporadic movement); 1- immotile (dead)[48].

[5] = system: S. mansoni adults; assay: S. mansoni adults phenotypic screen ex vivo; assay type: cell-based, Schistosoma mansoni; conditions: Table 2S, 5 uM
Source text: as §1
Phenotypic screens with 42-day-old, adult parasites were performed in 24-well plates (Costar cat.# 3526) containing the above medium and approximately five adult males and two females per well. Compound was added in a volume of up to 1 μL DMSO at a concentration of 5 µM (0.05% DMSO final). Assay plates were incubated at 37 °C in a 5% CO2 environment. Parasite phenotypes were recorded at 4, 8 and 24 h using a Zeiss Axiovert 40 C.
as §2

[6] = Figure 1, ranges of inhibitory activity, read-out: IC50 range
[7] = recombinant FhTIM, 1 h incubation with compound at 37 °C, read-out: IC50
[8] = Table 1S, screening of 340 compounds in FhTIM, table head prints no unit, µM per b8/b9, read-out: IC50

Fasciola hepatica TIM (FhTIM), sequence (S4UI50 entry or part of it): as above

IC50 [1, 8]: > 100 µM
Structure (SMILES): O=C(C=Cc1cccc2ccccc12)c1ccccc1 [Compound 1266]

IC50 [1, 8]: > 100 µM
Structure (SMILES): O=C(C=Cc1cccc2ccccc12)c1ccccc1O [Compound 1269]

IC50 [1, 8]: > 100 µM
Structure (SMILES): C=CCn1c(-c2ccc(Br)cc2)csc1=NN=C(C)C1CCC2C3CC=C4CC(O)CCC4(C)C3CCC12C (stereo not drawn) [Compound 1272]

IC50 [1, 8]: > 100 µM
Structure (SMILES): CC12CCC(O)CC1=CCC1C2CCC2(C)C(C(=O)C=CC=Cc3ccccc3)CCC12 (stereo not drawn) [Compound 1279]

IC50 [1, 8]: > 100 µM
Structure (SMILES): CC(=O)Nc1ccc(C=C2CN(C)CC(=Cc3ccc(NC(C)=O)cc3)C2=O)cc1 [Compound 1281]

IC50 [1, 8]: > 100 µM
Structure (SMILES): CN1CC(=CC=Cc2ccco2)C(=O)C(=CC=Cc2ccco2)C1 [Compound 1282]

IC50 [1, 8]: > 100 µM
Structure (SMILES): Cc1c(C=NNC(N)=S)no[n+]1[O-] [Compound 1283]

IC50 [1, 8]: 50 to 100 µM
Structure (SMILES): CN1C/C(=C\C=C\c2ccccc2)C(=O)/C(=C/C=C/c2ccccc2)C1 [Compound 1284]

IC50 [1, 8]: > 100 µM
Structure (SMILES): CN1CC(=CC=Cc2cccs2)C(=O)C(=CC=Cc2cccs2)C1 [Compound 1285]

IC50 [1, 8]: > 100 µM
Structure (SMILES): CN1CC(=Cc2ccc(S(=O)(=O)O)o2)C(=O)C(=Cc2ccc(S(=O)(=O)O)o2)C1 [Compound 1286]

IC50 ([4]; incubation time 48 h): 50 µM
Structure (SMILES): CS(=O)(=O)c1nc2cc(Oc3cccc(Cl)c3Cl)c(Cl)cc2[nH]1 [Compound 1293, 6-chloro-5-(2,3-dichlorophenoxy)-2-(methylsulfonyl)-1H-benzo[d]imidazole, reference compound]

The next lines start with the molecule.

Structure (SMILES): O=C1C(=Cc2ccc([N+](=O)[O-])s2)C(=O)N(Cc2ccccc2)S(=O)(=O)N1Cc1ccccc1 [Compound 114]
IC50 [1, 6]: < 50 µM
IC50 [1, 7]: 25 ± 8 µM
Kd [2]: 664 ± 25 µM
S. mansoni somules severity score ([3]; Table 2, 72 h, score 0 to maximum 4): 4 (72 h)
SOMULES SEVERITY SCORE ([3]; 24 h): 0
SOMULES SEVERITY SCORE ([3]; 48 h): 3
SOMULES SEVERITY SCORE ([3]; 3d): 4
IC50 ([4]; incubation time 4 h): 6.5 ± 0.6 µM

Structure (SMILES): O=C1C(=Cc2ccc([N+](=O)[O-])o2)C(=O)N(Cc2ccccc2)S(=O)(=O)N1Cc1ccccc1 [Compound 116]
IC50 [1, 6]: < 50 µM
IC50 [1, 8]: < 25 µM
IC50 [1, 7]: 5 ± 1 µM
IC50 ([4]; incubation time 72 h): > 50 µM

Structure (SMILES): C=CCN1C(=O)CSC1=NN=Cc1ccc2c(c1)[n+]([O-])c(-c1ccccc1)c(C(=O)Nc1ccccc1)[n+]2[O-] [Compound 303]
IC50 [1, 8]: > 100 µM
ADULTS SEVERITY SCORE ([5]; 4 h): 0
ADULTS SEVERITY SCORE ([5]; 8 h): 0
ADULTS SEVERITY SCORE ([5]; 24 h): 0
SOMULES SEVERITY SCORE ([3]; 24 h): 0
SOMULES SEVERITY SCORE ([3]; 48 h): 4
SOMULES SEVERITY SCORE ([3]; 3d): 4

Structure (SMILES): C=CCNC(=S)NN=Cc1ccc2c(c1)[n+]([O-])c(C(=O)Nc1ccccc1)c(C)[n+]2[O-] [Compound 490]
IC50 [1, 8]: > 100 µM
SOMULES SEVERITY SCORE ([3]; 24 h): 0
SOMULES SEVERITY SCORE ([3]; 48 h): 0
SOMULES SEVERITY SCORE ([3]; 3d): 0

Structure (SMILES): COc1cc(/C=C/C(=O)CC(=O)/C=C/c2ccc(O)c(OC)c2)ccc1O [Compound 906]
IC50 ([1]; IC50 (µM), recombinant FhTIM, 1 h incubation with compound at 37 °C): 35 ± 4 µM
IC50 ([1]; IC50 range, Figure 1, ranges of inhibitory activity): < 50 µM
IC50 ([4]; incubation time 4 h): 7 ± 1 µM

Structure (SMILES): CCCCN1C(=O)C(=Cc2ccc([N+](=O)[O-])s2)C(=O)N(CCCC)S1(=O)=O [Compound 1148]
IC50 [1, 6]: < 50 µM
IC50 [1, 7]: 15 ± 5 µM
SOMULES SEVERITY SCORE ([3]; 24 h): 0
SOMULES SEVERITY SCORE ([3]; 48 h): 1
SOMULES SEVERITY SCORE ([3]; 3d): 0
IC50 ([4]; incubation time 4 h): 12 ± 2 µM

Structure (SMILES): Nc1ccc([N+](=O)[O-])cc1 [Compound 1196]
IC50 [1, 8]: > 100 µM

Structure (SMILES): [O-][n+]1onc2ccccc21 [Compound 1197]
IC50 [1, 8]: > 100 µM

Structure (SMILES): Oc1ccccc1CN1N=Cc2ccccc2OB1F [Compound 1198]
IC50 [1, 8]: > 100 µM

Structure (SMILES): Brc1ccc(-c2c[se]c(=NN=CC=Cc3ccccc3)n2CCN2CCOCC2)cc1 [Compound 1222]
IC50 [1, 8]: 50 to 100 µM

Structure (SMILES): O=C1C(=CC=Cc2ccco2)CCC1=CC=Cc1ccco1 [Compound 1223]
IC50 [1, 8]: 50 to 100 µM

Structure (SMILES): O=C1C(=CC=Cc2cccs2)CCCC1=CC=Cc1cccs1 [Compound 1245]
IC50 [1, 8]: > 100 µM

Structure (SMILES): O=C1C(=CC=Cc2ccccc2)CCC1=CC=Cc1ccccc1 [Compound 1246]
IC50 [1, 8]: 50 to 100 µM

Structure (SMILES): O=C1C(=Cc2ccccc2)CCC1=Cc1ccccc1 [Compound 1247]
IC50 [1, 8]: 50 to 100 µM

Structure (SMILES): O=C1C(=Cc2cccs2)CCC1=Cc1cccs1 [Compound 1248]
IC50 [1, 8]: > 100 µM

Structure (SMILES): O=C(NN=Cc1ccccc1O)c1ccc(Cl)cc1 [Compound 1249]
IC50 [1, 8]: > 100 µM

Structure (SMILES): O=C(NN=Cc1ccccc1O)c1ccccc1Cl [Compound 1250]
IC50 [1, 8]: > 100 µM

Structure (SMILES): O=C(C=Cc1ccc2ccccc2c1)c1c(O)ccc2ccccc12 [Compound 1254]
IC50 [1, 7]: 50 ± 5 µM
SOMULES SEVERITY SCORE ([3]; 24 h): 0
SOMULES SEVERITY SCORE ([3]; 48 h): 2
SOMULES SEVERITY SCORE ([3]; 3d): 0

Structure (SMILES): CC(=NN=c1[nH]c(C(=O)O)cs1)C1CCC2C3CC=C4CC(O)CCC4(C)C3CCC12C (stereo not drawn) [Compound 1258]
IC50 [1, 8]: > 100 µM

Structure (SMILES): CC12CCC(O)CC1=CCC1C2CCC2(C)C(C(=O)C=Cc3ccccc3Cl)CCC12 (stereo not drawn) [Compound 1259]
IC50 [1, 8]: > 100 µM
